Experiments:
M4 receptor = assay: Ca-dependent Cl response in Xenopus oocytes coexpressing M4 receptor and chimeric Gqα subunit (G11α/G14α); format: cell-based; details: Xenopus oocyte, chimeric Gqα subunit coexpressed, clamped at −60 mV by TEVC, FIG. 5
Experimental: They were subjected to coexpression in Xenopus oocytes. […] Res. Commun. 201 (2), 894-901 (1994).
Thereafter, oocytes were cultured.

H2 receptor = H2 receptor (Homo sapiens, UniProt P25021); details: Xenopus oocyte
Sequence of H2 receptor (P25021 whole entry): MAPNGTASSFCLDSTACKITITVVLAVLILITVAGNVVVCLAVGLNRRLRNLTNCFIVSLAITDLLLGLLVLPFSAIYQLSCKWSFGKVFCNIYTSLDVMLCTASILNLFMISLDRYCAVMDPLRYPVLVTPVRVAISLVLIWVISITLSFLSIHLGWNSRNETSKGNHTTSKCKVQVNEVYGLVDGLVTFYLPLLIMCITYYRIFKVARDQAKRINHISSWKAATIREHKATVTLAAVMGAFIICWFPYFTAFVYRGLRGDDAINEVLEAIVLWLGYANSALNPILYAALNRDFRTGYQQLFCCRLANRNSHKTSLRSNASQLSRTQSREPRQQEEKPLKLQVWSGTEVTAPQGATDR
From the text: Oocytes removed from a female Xenopus were selected by a conventional method. RNA encoding the H1 and H2 receptors, M1 to M5 receptors, δ opioid receptors, or mGlu1 receptors that were synthesized in vitro were transfected into the selected oocyte together with RNA encoding a chimeric Gqα subunit constituted by a portion of the G11 protein α subunit and a portion of the G14 protein α subunit that was similarly synthesized. As a control, an oocyte to which RNA of the chimeric Gqα subunit was not to be transfected was prepared. Thereafter, oocytes were cultured.
The cultured oocytes were clamped at −60 mV by TEVC. […] The occurrence of Ca-dependent Cl response was then assayed.
RNA encoding the H2 receptor was transfected in the oocytes. Simultaneously or 24 hours thereafter, RNA encoding the chimeric Gqα subunit constituted by a portion of the G11α subunit and a portion of the G14α subunit was transfected therein. Thereafter, the ligand responses of these oocytes were assayed by the method described in Example 1.

| Compound | response generated by ligand stimulus at various concentration levels (M4 receptor) | response generated by ligand, chimeric Gqα RNA transfected 24 hours after GPCR RNA compared with simultaneous transfection (H2 receptor; 10 μM ligand, FIG. 6) | response generated by ligand stimulus at various concentration levels (H2 receptor; chimeric Gqα subunit coexpressed, clamped at −60 mV by TEVC, FIG. 5) |
| --- | --- | --- | --- |
| CC(=O)OCC[N+](C)(C)C [Ach] | correlations between ligand concentration and size of response |  |  |
| NCCc1c[nH]cn1 [histamine] |  | greatly increased | correlations between ligand concentration and size of response |

From US20040253675A1, “Method for GPCR assay with a coexpressed Galpha protein” (Hitachi, Ltd., priority 2003, published 2004)
